Consider seven compounds from PubChem BioAssay (NCI).

“And” between values parts separate entries of the source, which are not always exact repeats. Identical values can stand only once.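 Exposure lasted 48 hours, with cells grown in 96-well plates and compounds tested at five concentrations. Abbreviation: GI50, concentration required for 50% inhibition of growth. Definition used: TGI = concentration required for complete inhibition of growth.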

Test systems include MCF7 breast; T-47D breast; SK-MEL-2 melanoma; HS 578T breast; SNB-75 CNS; CCRF-CEM leukemia; HCT-15 colon; SNB-19 CNS; A549 NSCLC; SW-620 colon.
Assay in all cases: growth of human tumour cells (NCI), 48 h

As to `O=C1CN2CCC1C/C2=C\c1ccnc2c(Cl)cccc12` (stereo unspecified), the GI50 is 4.16 µM in the experiment with MCF7 breast; 18.8 µM in the experiment on T-47D breast; > 100 µM in the experiment on SK-MEL-2 melanoma; > 100 µM in the experiment on HS 578T breast; > 100 µM in the experiment with SNB-75 CNS; 36.5 µM with CCRF-CEM leukemia. The GI50 was 85.7 µM in the experiment on HCT-15 colon, > 100 µM in the experiment on SNB-19 CNS, > 100 µM in the experiment on A549 NSCLC and > 100 µM in the experiment with SW-620 colon. Further, the TGI in the experiment on MCF7 breast, in the experiment with T-47D breast, in the experiment on SK-MEL-2 melanoma, in the experiment with HS 578T breast, in the experiment with SNB-75 CNS and in the experiment with CCRF-CEM leukemia was > 100 µM in each case. Moreover, the TGI in the experiment on HCT-15 colon, in the experiment with SNB-19 CNS, in the experiment with A549 NSCLC and in the experiment on SW-620 colon was > 100 µM throughout.
Turning to `COc1cc(N)ccc1Nc1c2ccccc2nc2ccccc12`, the GI50 with MCF7 breast was 2.27 µM; in the experiment on T-47D breast, 15.5 µM; in the experiment with SK-MEL-2 melanoma, 23.3 µM; in the experiment on HS 578T breast, 14.3 µM; in the experiment with SNB-75 CNS it was 10.8 µM; in the experiment with CCRF-CEM leukemia it was 3.73 µM. Besides, the GI50 in the experiment on HCT-15 colon was 2.86 µM; in the experiment on SNB-19 CNS, 15.9 µM; in the experiment with A549 NSCLC, 4.32 µM; with SW-620 colon it was 3.55 µM. For the same compound, the TGI with MCF7 breast is 13.5 µM; in the experiment on T-47D breast it was 47.8 µM; with SK-MEL-2 melanoma it was 44.9 µM; with HS 578T breast, 44.3 µM; with SNB-75 CNS, 31.2 µM; in the experiment with CCRF-CEM leukemia it was > 100 µM. Also, the TGI turned out to be 12 µM in the experiment on HCT-15 colon, 38.1 µM in the experiment with SNB-19 CNS, 24.9 µM in the experiment with A549 NSCLC and 13.5 µM in the experiment on SW-620 colon.
On to `CN1CCN(Cc2ccc(NC(=O)c3[nH]ncc3Nc3ccnc4ccsc34)cc2)CC1`, for which the GI50 in the experiment with MCF7 breast was 0.489 µM; in the experiment with T-47D breast it was 4.95 µM; in the experiment on SK-MEL-2 melanoma, 3.86 µM; with HS 578T breast it was 2.09 µM; with SNB-75 CNS, 0.222 µM; with CCRF-CEM leukemia, 2.45 µM. For the same compound, the GI50 in the experiment on HCT-15 colon was 3.25 µM; with SNB-19 CNS, 2.81 µM; in the experiment with A549 NSCLC it was 3.04 µM; with SW-620 colon, 2.6 µM. Also, the TGI in the experiment on MCF7 breast is 11.7 µM; in the experiment with T-47D breast, 50.6 µM; in the experiment with SK-MEL-2 melanoma, 14.7 µM; in the experiment on HS 578T breast, 14.4 µM; in the experiment on SNB-75 CNS, 3.54 µM; in the experiment on CCRF-CEM leukemia, 9.26 µM. Moreover, the TGI in the experiment on HCT-15 colon is 16.1 µM; in the experiment on SNB-19 CNS, 20.2 µM; in the experiment with A549 NSCLC, 14.5 µM; in the experiment on SW-620 colon it was 12 µM.
`Cc1cc(-c2cc(C)c(O)c(C(C)(C)C)c2)cc(C(C)(C)C)c1O`: the TGI in the experiment on MCF7 breast was 16.7 µM and 19.4 µM; in the experiment with T-47D breast it was 20.1 µM and 20.7 µM; with SK-MEL-2 melanoma, 19.4 µM and 25.8 µM; with HS 578T breast, 27.1 µM and 32.7 µM; with SNB-75 CNS, 25.4 µM and 27 µM; in the experiment on CCRF-CEM leukemia it was 22.4 µM and 39.1 µM. The TGI in the experiment with HCT-15 colon was 18.1 µM and 23.5 µM; with SNB-19 CNS it was 27.7 µM and 26.7 µM; in the experiment with A549 NSCLC, 21.4 µM and 21.3 µM; in the experiment with SW-620 colon it was 25.1 µM and 70 µM. Further, the GI50 in the experiment on HCT-15 colon is 5.13 µM and 10.8 µM.
As to `O=C(c1cccs1)c1c(C(F)(F)F)n([O-])c2cc(C(F)(F)F)ccc2[n+]1=O`, the GI50 is 0.187 µM in the experiment on MCF7 breast; 0.154 µM with T-47D breast; 0.915 µM with SK-MEL-2 melanoma; 0.189 µM in the experiment on HS 578T breast; 0.491 µM in the experiment with SNB-75 CNS; 0.12 µM with CCRF-CEM leukemia. Further, the GI50 in the experiment with HCT-15 colon is 0.175 µM; with SNB-19 CNS it was 0.348 µM; with A549 NSCLC it was 0.242 µM; with SW-620 colon, 0.14 µM. Besides, the TGI came out at 0.41 µM with MCF7 breast; 0.4 µM in the experiment on T-47D breast; 2.46 µM in the experiment with SK-MEL-2 melanoma; 0.546 µM with HS 578T breast; 1.54 µM with SNB-75 CNS; 0.361 µM in the experiment on CCRF-CEM leukemia. In addition, the TGI in the experiment with HCT-15 colon was determined as 0.349 µM; in the experiment on SNB-19 CNS it was 0.707 µM; in the experiment with A549 NSCLC it was 0.69 µM; in the experiment on SW-620 colon, 0.304 µM.
On to `COc1cc(-c2ccc(-[n+]3nc(-c4ccc([N+](=O)[O-])cc4)nn3-c3ccc([N+](=O)[O-])cc3)c(OC)c2)ccc1-[n+]1nc(-c2ccc([N+](=O)[O-])cc2)nn1-c1ccc([N+](=O)[O-])cc1`, for which the GI50 in the experiment on MCF7 breast was 1.75 µM; in the experiment on T-47D breast, 0.3 µM; in the experiment with SK-MEL-2 melanoma, 4.29 µM; in the experiment on HS 578T breast it was 1.93 µM; in the experiment with SNB-75 CNS, 1.3 µM; in the experiment on CCRF-CEM leukemia it was 1.08 µM. The GI50 in the experiment with HCT-15 colon is 6.17 µM; with SNB-19 CNS, 11.9 µM; in the experiment on A549 NSCLC it was 3.46 µM; in the experiment with SW-620 colon, 2.99 µM. For the same compound, the TGI was 4.47 µM in the experiment on MCF7 breast; 5.75 µM in the experiment on T-47D breast; 17.9 µM with SK-MEL-2 melanoma; 5.07 µM in the experiment with HS 578T breast; 2.95 µM with SNB-75 CNS; > 100 µM with CCRF-CEM leukemia. Further, the TGI was determined as 49.5 µM in the experiment with HCT-15 colon, 69.3 µM with SNB-19 CNS, 31.2 µM in the experiment with A549 NSCLC and 25.1 µM in the experiment on SW-620 colon.
Turning to `O=C(Nc1cccc(-c2nc3ccccc3[nH]2)c1)c1cccc(NC(=O)c2ccco2)c1`, the GI50 was 1.52 µM in the experiment on MCF7 breast; 1.75 µM in the experiment with T-47D breast; 5.33 µM in the experiment on SK-MEL-2 melanoma; 2.2 µM with HS 578T breast; 1.55 µM in the experiment with SNB-75 CNS; 3.99 µM in the experiment with CCRF-CEM leukemia. In addition, the GI50 is 3.06 µM in the experiment with HCT-15 colon, 2.86 µM with SNB-19 CNS, 1.88 µM in the experiment with A549 NSCLC and 3.19 µM in the experiment with SW-620 colon. The TGI in the experiment on MCF7 breast came to 3.02 µM; in the experiment on T-47D breast it was 3.79 µM; in the experiment on SK-MEL-2 melanoma, 16.9 µM; with HS 578T breast it was 5.97 µM; in the experiment with SNB-75 CNS it was 2.91 µM; with CCRF-CEM leukemia, 16.1 µM. For the same compound, the TGI was found to be 10.8 µM in the experiment with HCT-15 colon, 8.19 µM in the experiment with SNB-19 CNS, 3.95 µM in the experiment on A549 NSCLC and 10.8 µM in the experiment with SW-620 colon.
